This passage reports EC50 and IC50 results from patent US20100075965A1, “PI3 KINASE INHIBITORS AND METHODS OF THEIR USE” (Novartis AG, priority 2006, published 2010).

One assay deals with A2780 cells. Briefly: Viability assay in A2780 (Cell Titer Glo). Type of assay: cell-based, human. As to conditions: Homo sapiens, A2780 cells, read-out: A2780 Cell prolif. EC50. A digest of the protocol:
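EC50 values come from Cell Titer Glo luminescence after 72 hrs of compound exposure at 37° C, run in duplicate. A2780 cells were plated at 1,000 per well in DMEM with 10% FBS and dosed with 3-fold serial dilutions.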

For a further assay, the target named is PI3 K Alpha (Homo sapiens, UniProt P42336). Briefly: PI3 kinase phosphorylation assays (homogenous solution phase, one step solid phase, ATP depletion/KinaseGlo). In kind it is biochemical.
PI3 K Alpha, sequence (P42336 whole entry): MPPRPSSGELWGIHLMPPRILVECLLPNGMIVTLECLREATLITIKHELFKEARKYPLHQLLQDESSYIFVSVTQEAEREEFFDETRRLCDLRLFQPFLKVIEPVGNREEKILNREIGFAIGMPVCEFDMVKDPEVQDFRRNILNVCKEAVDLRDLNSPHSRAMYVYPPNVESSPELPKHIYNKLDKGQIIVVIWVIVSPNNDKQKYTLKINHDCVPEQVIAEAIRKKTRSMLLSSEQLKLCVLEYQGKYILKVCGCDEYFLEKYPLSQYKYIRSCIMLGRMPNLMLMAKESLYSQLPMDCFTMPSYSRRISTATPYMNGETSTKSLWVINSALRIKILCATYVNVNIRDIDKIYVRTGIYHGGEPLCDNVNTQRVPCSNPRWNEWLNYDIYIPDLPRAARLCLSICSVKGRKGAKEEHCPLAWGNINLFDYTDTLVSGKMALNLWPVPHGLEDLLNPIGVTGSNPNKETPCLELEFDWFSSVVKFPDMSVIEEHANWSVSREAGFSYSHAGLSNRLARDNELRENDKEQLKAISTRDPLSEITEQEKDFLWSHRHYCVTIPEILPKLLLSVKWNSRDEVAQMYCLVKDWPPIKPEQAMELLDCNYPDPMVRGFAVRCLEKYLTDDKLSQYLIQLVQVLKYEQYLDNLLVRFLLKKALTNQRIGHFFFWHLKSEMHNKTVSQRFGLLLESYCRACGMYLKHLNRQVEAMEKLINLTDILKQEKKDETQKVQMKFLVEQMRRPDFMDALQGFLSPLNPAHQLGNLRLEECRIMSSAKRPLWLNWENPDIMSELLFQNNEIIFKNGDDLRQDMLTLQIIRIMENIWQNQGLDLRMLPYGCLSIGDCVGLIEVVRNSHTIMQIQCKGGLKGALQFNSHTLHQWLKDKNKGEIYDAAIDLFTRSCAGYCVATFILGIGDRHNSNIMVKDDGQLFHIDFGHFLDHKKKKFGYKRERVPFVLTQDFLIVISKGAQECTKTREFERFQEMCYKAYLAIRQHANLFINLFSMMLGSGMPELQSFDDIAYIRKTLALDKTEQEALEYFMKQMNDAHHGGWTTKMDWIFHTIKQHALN
PI3 K Alpha, sequence (P27986 whole entry partner): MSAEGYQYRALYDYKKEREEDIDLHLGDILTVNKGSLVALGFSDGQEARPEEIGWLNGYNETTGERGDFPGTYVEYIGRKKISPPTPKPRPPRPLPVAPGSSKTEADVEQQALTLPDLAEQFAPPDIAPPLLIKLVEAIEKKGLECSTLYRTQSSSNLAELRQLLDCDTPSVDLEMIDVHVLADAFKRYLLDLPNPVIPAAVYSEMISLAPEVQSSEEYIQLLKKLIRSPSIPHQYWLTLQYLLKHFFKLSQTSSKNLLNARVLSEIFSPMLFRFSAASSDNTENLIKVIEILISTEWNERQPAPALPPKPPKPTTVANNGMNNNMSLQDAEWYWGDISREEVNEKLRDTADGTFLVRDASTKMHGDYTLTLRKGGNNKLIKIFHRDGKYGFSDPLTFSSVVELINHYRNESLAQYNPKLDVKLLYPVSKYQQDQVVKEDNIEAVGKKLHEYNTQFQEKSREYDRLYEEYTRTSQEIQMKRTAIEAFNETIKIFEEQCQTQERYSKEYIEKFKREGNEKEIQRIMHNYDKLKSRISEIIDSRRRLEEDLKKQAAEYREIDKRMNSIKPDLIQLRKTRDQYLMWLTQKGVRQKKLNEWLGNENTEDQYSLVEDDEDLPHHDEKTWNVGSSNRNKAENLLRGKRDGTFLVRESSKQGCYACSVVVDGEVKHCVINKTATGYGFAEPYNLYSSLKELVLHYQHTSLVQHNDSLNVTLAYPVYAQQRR
Setting [1] is: ATP depletion assay, read-out: PI3 K Alpha IC50.

Read-outs that look alike come from different tables or passages of the source.

In general, EC50 refers to the concentration that produces a half-maximal response. What is called IC50 is the point on the concentration scale where inhibition reaches its midpoint. For `CN(C)C1CCN(C(=O)Nc2cn3cc(-c4cnc(N)c(C(F)(F)F)c4)ccc3n2)C1` (stereo not shown) [Example 248, N-(6-(6-amino-5-(trifluoromethyl)pyridin-3-yl)imidazo[1,2-a]pyridin-2-yl)-3-(dimethylamino) pyrrolidine-1-carboxamide], the concentration giving a half-maximal response (EC50) with A2780 cells was under 10 µM. The IC50 on PI3 K Alpha (read-out: PI3K Alpha IC50) was under 1 µM.
As to `NCCCC(=O)Nc1cn2nc(-c3cnc(N)c(C(F)(F)F)c3)ccc2n1` [Example 137, 4-amino-N-(6-(6-amino-5-(trifluoromethyl)pyridin-3-yl)imidazo[1,2-b]pyridazin-2-yl)butanamide], the EC50 with A2780 cells was under 25 µM. Moreover, on PI3 K Alpha (read-out: PI3K Alpha IC50), the concentration for half-maximal inhibition (IC50) was under 1 µM.
Regarding `N#Cc1cccc(C(=O)Nc2cn3cc(-c4cnc(N)c(C(F)(F)F)c4)ccc3n2)c1` [Example 245, N-(6-(6-amino-5-(trifluoromethyl)pyridin-3-yl)imidazo[1,2-a]pyridin-2-yl)-3-cyanobenzamide], in the assay with A2780 cells, the EC50 was under 10 µM. Also, on PI3 K Alpha (read-out: PI3K Alpha IC50), the half-inhibitory concentration (IC50) was under 1 µM.
`CCN/N=C/c1cc(-c2ccc3nc(NC(C)=O)cn3c2)cnc1N` [Example 207, (E)-N-(6-(6-amino-5-((2-ethylhydrazono)methyl)pyridin-3-yl)imidazo[1,2-a]pyridin-2-yl)acetamide]: in the assay with A2780 cells, the EC50 is under 10 µM. Moreover, the IC50 at PI3 K Alpha (read-out: PI3K Alpha IC50) was under 1 µM.
In the same order, the values of `Nc1ncc(-c2ccc3nc(NC(=O)C(F)(F)F)cn3c2O)cc1C(F)(F)F` [Example 41] are under 25 µM and under 10 µM.
Turning to `CO/N=C/c1cc(-c2ccc3nc(NC(C)=O)cn3c2)cnc1N` [Example 150, (E)-N-(6-(6-amino-5-((methoxy-imino)methyl)pyridin-3-yl)imidazo[1,2-a]pyridin-2-yl)acetamide], the 50% effective concentration (EC50) in the assay on A2780 cells is under 25 µM. The IC50 at PI3 K Alpha (read-out: PI3K Alpha IC50) is under 1 µM.
In the same order, the values of `COCCOc1nc(-c2ccc3nc(NC(=O)C4CCN4)cn3c2)cnc1N` (stereo not shown) [Example 153, N-(6-(5-amino-6-(2-methoxyethoxy)pyrazin-2-yl)imidazo[1,2-a]pyridin-2-yl)azetidine-2-carboxamide] are under 25 µM and under 1 µM.
The corresponding values for `CC(=O)Nc1cn2nc(-c3cnc(N)c(C(=O)NCCN4CCCC4)c3)ccc2n1` [Example 211, 5-(2-acetamido-imidazo[1,2-b]pyridazin-6-yl)-2-amino-N-(2-(pyrrolidin-1-yl)ethyl) nicotinamide] are under 10 µM and under 1 µM.
`COC(=O)C1CCN(C(=O)Nc2cn3cc(-c4cnc(N)c(C(F)(F)F)c4)ccc3n2)C1` (stereo not shown) [Example 257, methyl 1-(6-(6-amino-5-(trifluoromethyl)pyridin-3-yl)imidazo[1,2-a]pyridin-2-ylcarbamoyl) pyrrolidine-3-carboxylate]: the EC50 in the assay on A2780 cells was under 10 µM. Moreover, the IC50 on PI3 K Alpha (read-out: PI3K Alpha IC50) was under 1 µM.
Take `Nc1ncc(-c2ccc3nc(NC(=O)N4CC[C@H](O)C4)cn3c2)cc1C(F)(F)F` [Example 224, (S)-N-(6-(6-amino-5-(trifluoromethyl)pyridin-3-yl)imidazo[1,2-a]pyridin-2-yl)-3-hydroxy-pyrrolidine-1-carboxamide]: in the assay with A2780 cells, the EC50 was under 10 µM. The IC50 on PI3 K Alpha (read-out: PI3K Alpha IC50) is under 1 µM.
The corresponding values for `COc1c(-c2cnc(N)c(C(F)(F)F)c2)ccc2nc(NC(=O)C(F)(F)F)cn12` [Example 37, N-(6-(6-amino-5-(trifluoromethyl)pyridin-3-yl)-5-methoxy-imidazo[1,2-a]pyridin-2-yl)-2,2,2-trifluoroacetamide] are under 25 µM and under 25 µM.
For `CC(=O)Nc1nc2cc(C)c(-c3cnc(N)c(C(F)(F)F)c3)cc2s1` [Example 2-28, N-[6-(6-Amino-5-trifluoromethyl-pyridin-3-yl)-5-methyl-benzothiazol-2-yl]-acetamide], the half-maximal effective concentration (EC50) in the assay on A2780 cells (72 hrs) was under 25 µM. In addition, the IC50 on PI3 K Alpha (setting [1]) is under 1 µM.
Take `CC(=O)Nc1cn2cc(-c3cnc(N)c(C(=O)N4CCNCC4)c3)ccc2n1` [Example 160, N-(6-(6-amino-5-(piperazine-1-carbonyl)pyridin-3-yl)imidazo[1,2-a]pyridin-2-yl)acetamide]: the EC50 in the assay with A2780 cells was under 25 µM. The concentration for half-maximal inhibition (IC50) on PI3 K Alpha (read-out: PI3K Alpha IC50) is under 1 µM.
In the same order, the values of `CCOC(=O)CC(=O)Nc1cn2cc(-c3cnc(N)c(C(F)(F)F)c3)ccc2n1` [Example 255, ethyl 3-(6-(6-amino-5-(trifluoromethyl)pyridin-3-yl)imidazo[1,2-a]pyridin-2-ylamino)-3-oxopropanoate] are under 10 µM and under 1 µM.
For `Nc1ncc(-c2ccc3nc(NC(=O)CCCC(=O)O)cn3n2)cc1C(F)(F)F` [Example 138, 5-(6-(6-amino-5-(trifluoromethyl)pyridin-3-yl)imidazo[1,2-b]pyridazin-2-ylamino)-5-oxopentanoic acid], the EC50 in the assay with A2780 cells is under 25 µM. In addition, on PI3 K Alpha (read-out: PI3K Alpha IC50), the IC50 is under 1 µM.
Take `CC(=O)Nc1nc2cc(F)c(-c3cnc(N)c(C(F)(F)F)c3)cc2s1` [Example 2-29, N-[6-(6-Amino-5-trifluoromethyl-pyridin-3-yl)-5-fluoro-benzothiazol-2-yl]-acetamide]: the EC50 with A2780 cells (72 hrs) was under 25 µM. Moreover, at PI3 K Alpha (setting [1]), the IC50 was under 1 µM.
In the same order, the values of `Nc1ccc(C(=O)Nc2nc3ccc(-c4cnc(N)c(C(F)(F)F)c4)cc3s2)cn1` [Example 2-34, 6-amino-N-(6-(6-amino-5-(trifluoromethyl)pyridin-3-yl)benzo[d]thiazol-2-yl)nicotinamide] are under 1 µM and under 1 µM.
Turning to `CC(=O)Nc1cn2cc(-c3cnc(N)cn3)ccc2n1` [Example 161, N-(6-(5-aminopyrazin-2-yl)imidazo[1,2-a]pyridin-2-yl)acetamide], in the assay with A2780 cells, the half-maximal effective concentration (EC50) is under 25 µM. Besides, the concentration for half-maximal inhibition (IC50) at PI3 K Alpha (read-out: PI3K Alpha IC50) was under 1 µM.
The corresponding values for `Nc1ncc(-c2ccc3nc(NC(=O)C4CNC4)cn3n2)cc1Cl` [Example 142, N-(6-(6-amino-5-chloropyridin-3-yl)imidazo[1,2-b]pyridazin-2-yl)azetidine-3-carboxamide] are under 25 µM and under 1 µM.
Take `CC(C)(C)OC(=O)N1CCC1C(=O)Nc1cn2cc(-c3cnc(N)c(OCC(F)(F)F)n3)ccc2n1` (stereo not shown) [Example 174, tert-butyl 2-(6-(5-amino-6-(2,2,2-trifluoroethoxy)pyrazin-2-yl)imidazo[1,2-a]pyridin-2-ylcarbamoyl) azetidine-1-carboxylate]: the concentration giving a half-maximal response (EC50) with A2780 cells is under 25 µM. Besides, the concentration for half-maximal inhibition (IC50) on PI3 K Alpha (read-out: PI3K Alpha IC50) is under 1 µM.
Take `CC(=O)Nc1cn2cc(-c3cnc(N)c(-c4cccc(F)c4)c3)ccc2n1` [Example 134, N-(6-(6-amino-5-(3-fluorophenyl)pyridin-3-yl)imidazo[1,2-a]pyridin-2-yl)acetamide]: the 50% effective concentration (EC50) in the assay on A2780 cells was under 10 µM. The IC50 on PI3 K Alpha (read-out: PI3K Alpha IC50) was under 1 µM.
Regarding `NC(=O)Nc1cn2cc(-c3cnc(N)c(C(F)(F)F)c3)ccc2n1` [Example 219, 1-(6-(6-amino-5-(trifluoromethyl)pyridin-3-yl)imidazo[1,2-a]pyridin-2-yl)urea], the EC50 in the assay with A2780 cells is under 10 µM. Further, the IC50 on PI3 K Alpha (read-out: PI3K Alpha IC50) was under 1 µM.
The corresponding values for `CC(=O)Nc1cn2nc(-c3cnc(N)c(N4CCOCC4)n3)ccc2n1` [Example 176, N-(6-(5-amino-6-morpholino-pyrazin-2-yl)imidazo[1,2-b]pyridazin-2-yl)acetamide] are under 25 µM and under 1 µM.
